Data set [1] can be described thus: Lipophilicity, logD of compound. To be noted: octanol/water. Format: physicochemical.
Data set [2] is described as follows: Metabolic stability in mouse liver microsomes assessed as intrinsic clearance. Format: ADME, Microsome. To be noted: read-out: CLH. A general note: Liver microsomes are vesicles of endoplasmic reticulum, rich in cytochrome P450 enzymes.
The target of data set [3] is T1, DNA polymerase theta (Homo sapiens, UniProt O75417). In words: Inhibition of recombinant human full length DNA polymerase theta using DNA substrate measured after 1 hrs in presence of dNTPs by plate reader assay.
Data set [4] deals with DLD-1. The experiment in a line: Antiproliferative activity against human BRCA-2 deficient DLD-1 cells. In kind it is functional, cell-based.
A short description of data set [5]: Inhibition of microhomology-mediated end joining in HEK293 cells. In kind it is functional, cell-based, Homo sapiens.
Data set [6] has as its target T1, DNA polymerase theta. In words: Displacement of tracer from recombinant Tb-labeled DNA polymerase theta (unknown origin) assessed as end point Kd using DNA as substrate preincubated for 30 mins followed by compound addition for 2 hrs by HTRF assay. In general terms: Time-resolved FRET reads energy transfer from a long-lived donor to a nearby acceptor.
Data set [7] can be described thus: Thermodynamic solubility of the compound. To be noted: read-out: Therm_solubility. Format: physicochemical.
The test system of data set [8] is DLD-1. In words: Antiproliferative activity against human DLD-1 cells. Format: functional, cell-based.
Data set [9] concerns the target T1, DNA polymerase theta. The experiment in a line: Displacement of tracer from recombinant Tb-labeled DNA polymerase theta (unknown origin) using DNA as substrate preincubated for 30 mins followed by compound addition for 2 hrs by HTRF assay.
In data set [10] the target is T1, DNA polymerase theta. In words: Inhibition of human full length DNA polymerase theta ATPase activity by ADP-Glo assay. (In general: In ADP-Glo the light output rises with the ADP produced.)

Values after ≈ are worked out from the molar mass of the structure shown. Bounds are passed on as bounds.

T1 sequence (O75417 whole entry): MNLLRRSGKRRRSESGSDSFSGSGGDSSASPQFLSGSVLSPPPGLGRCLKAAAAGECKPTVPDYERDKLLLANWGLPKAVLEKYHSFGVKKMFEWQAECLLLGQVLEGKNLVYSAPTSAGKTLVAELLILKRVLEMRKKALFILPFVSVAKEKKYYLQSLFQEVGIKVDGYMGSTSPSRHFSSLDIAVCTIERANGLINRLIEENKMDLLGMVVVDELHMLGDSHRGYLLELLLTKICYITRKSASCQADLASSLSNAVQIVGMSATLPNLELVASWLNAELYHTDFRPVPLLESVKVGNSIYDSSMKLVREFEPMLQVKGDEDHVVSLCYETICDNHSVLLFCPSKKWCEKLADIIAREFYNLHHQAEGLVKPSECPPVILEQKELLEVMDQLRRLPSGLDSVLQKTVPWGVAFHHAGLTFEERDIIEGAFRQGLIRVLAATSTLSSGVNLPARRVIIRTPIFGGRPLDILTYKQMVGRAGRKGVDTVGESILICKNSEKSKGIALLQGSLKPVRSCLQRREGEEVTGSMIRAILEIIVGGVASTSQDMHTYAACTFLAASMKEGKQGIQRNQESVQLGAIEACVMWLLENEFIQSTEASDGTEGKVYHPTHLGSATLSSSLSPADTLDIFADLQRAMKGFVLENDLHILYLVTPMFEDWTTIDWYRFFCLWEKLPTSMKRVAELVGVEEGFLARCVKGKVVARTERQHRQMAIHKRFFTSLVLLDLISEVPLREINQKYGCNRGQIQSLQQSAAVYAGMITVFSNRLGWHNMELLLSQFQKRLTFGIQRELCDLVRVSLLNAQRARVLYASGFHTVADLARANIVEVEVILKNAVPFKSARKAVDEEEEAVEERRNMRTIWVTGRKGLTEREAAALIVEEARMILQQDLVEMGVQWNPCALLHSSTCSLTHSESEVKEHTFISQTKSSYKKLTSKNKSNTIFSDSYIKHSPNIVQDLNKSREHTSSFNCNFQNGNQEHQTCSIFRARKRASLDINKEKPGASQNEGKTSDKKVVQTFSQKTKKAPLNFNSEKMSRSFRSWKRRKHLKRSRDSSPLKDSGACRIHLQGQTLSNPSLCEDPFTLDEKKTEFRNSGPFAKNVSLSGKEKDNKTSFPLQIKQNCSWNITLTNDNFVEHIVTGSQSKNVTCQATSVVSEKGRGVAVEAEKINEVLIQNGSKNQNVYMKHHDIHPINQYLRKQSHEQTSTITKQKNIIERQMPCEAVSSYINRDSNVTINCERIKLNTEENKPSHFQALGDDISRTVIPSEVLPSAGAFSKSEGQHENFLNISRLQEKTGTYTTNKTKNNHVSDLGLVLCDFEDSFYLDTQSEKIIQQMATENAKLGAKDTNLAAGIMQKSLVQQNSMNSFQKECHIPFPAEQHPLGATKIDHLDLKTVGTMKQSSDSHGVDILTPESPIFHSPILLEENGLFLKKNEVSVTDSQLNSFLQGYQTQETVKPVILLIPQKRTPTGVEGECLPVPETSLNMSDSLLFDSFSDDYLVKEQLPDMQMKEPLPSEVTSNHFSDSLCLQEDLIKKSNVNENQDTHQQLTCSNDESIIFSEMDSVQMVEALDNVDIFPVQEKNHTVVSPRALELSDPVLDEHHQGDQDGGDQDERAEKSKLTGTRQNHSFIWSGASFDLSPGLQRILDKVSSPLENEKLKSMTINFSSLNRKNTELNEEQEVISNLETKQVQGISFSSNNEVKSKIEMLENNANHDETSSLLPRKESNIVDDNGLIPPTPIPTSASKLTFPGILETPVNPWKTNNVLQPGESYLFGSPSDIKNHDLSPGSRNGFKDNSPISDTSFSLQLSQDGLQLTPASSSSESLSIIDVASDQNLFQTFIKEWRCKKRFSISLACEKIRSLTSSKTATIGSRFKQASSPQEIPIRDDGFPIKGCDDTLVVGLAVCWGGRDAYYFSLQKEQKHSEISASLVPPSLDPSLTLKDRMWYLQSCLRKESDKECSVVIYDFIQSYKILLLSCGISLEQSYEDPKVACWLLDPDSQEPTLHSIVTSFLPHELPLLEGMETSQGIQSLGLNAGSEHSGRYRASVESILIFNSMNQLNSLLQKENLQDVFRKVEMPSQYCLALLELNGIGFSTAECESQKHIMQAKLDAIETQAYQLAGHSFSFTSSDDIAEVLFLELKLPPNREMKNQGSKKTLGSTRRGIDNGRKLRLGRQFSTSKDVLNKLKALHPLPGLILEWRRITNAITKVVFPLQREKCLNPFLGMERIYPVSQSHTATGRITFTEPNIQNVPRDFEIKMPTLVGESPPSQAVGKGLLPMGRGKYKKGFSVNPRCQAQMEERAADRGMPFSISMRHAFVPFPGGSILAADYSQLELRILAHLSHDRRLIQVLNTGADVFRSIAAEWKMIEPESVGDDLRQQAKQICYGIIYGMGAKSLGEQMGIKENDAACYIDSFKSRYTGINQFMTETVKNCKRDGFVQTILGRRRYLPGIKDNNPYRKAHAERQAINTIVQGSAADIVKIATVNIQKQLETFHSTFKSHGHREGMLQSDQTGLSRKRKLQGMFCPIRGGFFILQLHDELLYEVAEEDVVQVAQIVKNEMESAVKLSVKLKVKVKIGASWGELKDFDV

As a reminder, the logD is the decadic logarithm of the distribution of all forms, ionised or not, between an organic phase and buffer at a given pH. Low values mean lower lipophilicity, high ones higher lipophilicity. For the molecule `Cc1cc(C(F)(F)F)cc(N2C(=O)OC[C@H]2C(=O)N(c2ccc(F)c(Cl)c2)C(C)C)n1`, the logD in data set [1] worked out at 4.4. Moreover, the microsomal CLint in [2] amounted to 48 µL/min/mg.

The term IC50 denotes the midpoint of a concentration-inhibition curve. Turning to `CCN(C(=O)[C@@H]1COCCN1c1nc(C)cc(C(F)(F)F)c1C#N)c1cccc(C)c1`, in data set [3], the 50% inhibitory concentration (IC50) was 2700 nM.

One may read the EC50 as the concentration needed to bring the measured effect to its halfway point. A lower EC50 goes with an effect from little substance. What is called Kd is the free concentration of one partner at which half of the binding sites on the other are occupied at equilibrium, for simple one-to-one binding. Take `Cc1cccc(N(C)C(=O)[C@@H]2[C@H](O)CCN2c2nc(C)cc(C(F)(F)F)c2C#N)c1`: the logD in data set [1] is 3.5. Moreover, the EC50 in data set [4] is 800 nM; in [5] it was 180 nM; in data set [8] it was over 12000 nM. The Kd in data set [6] was 6.4 nM; in data set [9] it was 4.8 nM. The solubility thermodynamic in [7] turned out to be 381 µM (≈ 159 µg/mL). Further, the IC50 in [10] was over 12000 nM. Moreover, the microsomal CLint in data set [2] was over 1500 µL/min/mg.

For the molecule `Cc1cc(C(F)(F)F)c(C#N)c(N2C[C@@H](O)C[C@H]2C(=O)N(C)c2ccccc2)n1`, the EC50 was 8000 nM in [4], 400 nM in data set [5] and over 12000 nM in data set [8]. Further, the Kd in data set [6] was found to be 110 nM.

Regarding `CCN(C(=O)[C@H](CO)Nc1nc(C)cc(C(F)(F)F)c1C#N)c1cccc(C)c1`, the logD in [1] was found to be 4. Also, the EC50 in data set [4] is 11000 nM; in data set [5], 255 nM; in [8] it was over 12000 nM. Moreover, the Kd in data set [6] amounted to 35 nM. For the same molecule, the 50% inhibitory concentration (IC50) in data set [3] amounted to 79 nM.

In the case of `CCN(C(=O)COc1cc(C(F)(F)F)cc(C)n1)c1cccc(C)c1`, the IC50 in data set [3] is 530 nM.

As to `Cc1cc(C(F)(F)F)cc(N2C(=O)OC[C@H]2C(=O)N(C)c2ccc(F)c(Cl)c2F)n1`, the IC50 in data set [3] was determined as 5.4 nM. In addition, the microsomal CLint in data set [2] was determined as 210 µL/min/mg.

Take `CCN(C(=O)COc1nc(C)c(Br)c(C)c1C#N)c1cccc(C)c1`: in data set [3], the 50% inhibitory concentration (IC50) worked out at 1500 nM.

In the case of `Cc1cccc(N(C)C(=O)[C@@H]2CCC(=O)N2c2cc(C(F)(F)F)cc(C)n2)c1`, the logD in data set [1] turned out to be 3.7. In addition, in data set [3], the 50% inhibitory concentration (IC50) came to 6.8 nM. Moreover, the microsomal CLint in data set [2] was over 1000 µL/min/mg.

As to `CCN(C(=O)[C@@H](C)Nc1nc(C)cc(C(F)(F)F)c1C#N)c1cccc(C)c1`, in [3], the IC50 was found to be 5100 nM.

With `CCN(C(=O)COc1nc(C)c(Br)c(C(F)(F)F)c1C#N)c1cccc(C)c1`, the IC50 in data set [3] worked out at 400 nM.

As for `Cc1cc(C(F)(F)F)cc(N2C(=O)OC[C@H]2C(=O)N(C)c2cccc(Cl)c2)n1`, in data set [2], the microsomal CLint was 410 µL/min/mg.

For the molecule `CCN(C(=O)CNc1nc(C)cc(C)c1C#N)c1cccc(C)c1`, the IC50 in data set [3] is 1800 nM.

In the case of `Cc1cccc(N(C)C(=O)[C@@H]2C[C@@H](O)CN2c2nc(C)cc(C(F)(F)F)c2C#N)c1`, the values for the EC50 in data set [4], in data set [5] and in [8] were 6000 nM, 315 nM and over 12000 nM, respectively.

`Cc1cccc(N(C)C(=O)[C@@H]2C[C@H](O)CN2c2nc(C)cc(C(F)(F)F)c2C#N)c1` returned a logD in data set [1] of 3.6. For the same molecule, the EC50 in data set [4] was 2300 nM; in data set [5] it was 205 nM; in data set [8], over 12000 nM.

For `Cc1cc(C(F)(F)F)cc(N2C(=O)OC[C@H]2C(=O)N(C)c2cc(Cl)c(F)cc2F)n1`, the microsomal CLint in [2] is 98 µL/min/mg.

As for `Cc1cc(C(F)(F)F)cc(N2C(=O)OC[C@H]2C(=O)N(C)c2ccc(F)c(C)c2)n1`, in data set [3], the IC50 was 9.4 nM. Also, the microsomal CLint in data set [2] turned out to be 404 µL/min/mg.

`Cc1cc(C(F)(F)F)cc(N2C(=O)OC[C@H]2C(=O)N(C)c2ccc(F)c(Cl)c2)n1`: in data set [3], the IC50 amounted to 15 nM. Besides, the microsomal CLint in data set [2] came out at 138 µL/min/mg.

Turning to `CCN(C(=O)[C@H](C)Nc1nc(C)cc(C(F)(F)F)c1C#N)c1cccc(C)c1`, in [3], the IC50 is 29 nM.

As for `CCN(C(=O)COc1nc(C)cc(C(F)(F)F)c1C#N)c1cccc(C)c1`, the EC50 in data set [4] was over 12000 nM; in data set [5], 680 nM; in data set [8] it was over 12000 nM. In data set [6], the Kd came to 61 nM. For the same molecule, the IC50 in [3] was 500 nM.

Consider `CCN(C(=O)[C@@H]1COC(=O)N1c1cc(C(F)(F)F)cc(C)n1)c1ccc(F)c(Cl)c1`, for which the logD in data set [1] was 4. The microsomal CLint in data set [2] amounted to 260 µL/min/mg.

For the origin of these results see ChEMBL document CHEMBL5108060, “Discovery, Characterization, and Structure-Based Optimization of Small-Molecule In Vitro and In Vivo Probes for Human DNA Polymerase Theta” (J Med Chem, 2022).
